Laboratory results: US11203613B2, “Peptidomimetic proteasome inhibitors” (CORNELL UNIVERSITY, priority 2017, dated 2021)

Biological target: Human Constitutive (Hu C-20S) β5 Active Subunit (Homo sapiens, UniProt P28074)
Test: IC50 determination, human constitutive 20S proteasome β5c (suc-LLVY-AMC hydrolysis)
Assay type: biochemical
Details: Table 3; IC50 against human constitutive β5 active subunit; read-out: Hu-C20S β5

| SMILES | IC50 [µM] |
| --- | --- |
| C[C@H]1CCCCN1C(=O)C[C@H](NC(=O)C1CC2(C1)CC(F)(F)C2)C(=O)NC1(c2nc3cccc(F)c3[nH]2)CC1 (stereo in doubt) [CEN-62, 6,6-Difluoro-N—((S)-1-((1-(7-fluoro-1H-benzo[d]imidazol-2-yl)cyclopropyl)amino)-4-((S)-2-methylpiperidin-1-yl)-1,4-dioxobutan-2-yl)spiro[3.3]heptane-2-carboxamide] | 2.4 |
| CC[C@H]1CCCCN1C(=O)C[C@H](N)C(=O)N[C@@H](C)c1nc2c(F)cccc2[nH]1 [CEN-1, (S)-2-Amino-4-((S)-2-ethylpiperidin-1-yl)-N—((S)-1-(4-fluoro-1H-benzo[d]imidazol-2-yl)ethyl)-4-oxobutanamide] | 14.2 |
| CC[C@H]1CCCCN1C(=O)C[C@H](NC(=O)CC1CC1)C(=O)N[C@@H](C)c1nc2c(F)cccc2[nH]1 [CEN-2, (S)-2-(2-Cyclopropylacetamido)-4-((S)-2-ethylpiperidin-1-yl)-N—((S)-1-(4-fluoro-1H-benzo[d]imidazol-2-yl)ethyl)-4-oxobutanamide] | 16.9 |
| CC[C@H]1CCCCN1C(=O)C[C@H](NC(=O)CCC(C)C)C(=O)N[C@@H](C)c1nc2c(F)cccc2[nH]1 [CEN-3, N—((S)-4-((S)-2-Ethylpiperidin-1-yl)-1-(((S)-1-(4-fluoro-1H-benzo[d]imidazol-2-yl)ethyl)amino)-1,4-dioxobutan-2-yl)-4-methylpentanamide] | 10.6 |
| CC[C@H]1CCCCN1C(=O)C[C@H](NC(=O)CCN(C)C)C(=O)N[C@@H](C)c1nc2c(F)cccc2[nH]1 [CEN-4, (S)-2-(3-(Dimethylamino)propanamido)-4-((S)-2-ethylpiperidin-1-yl)-N—((S)-1-(4-fluoro-1H-benzo[d]imidazol-2-yl)ethyl)-4-oxobutanamide] | 6.4 |
| CC[C@H]1CCCCN1C(=O)C[C@H](NC(=O)OCC(C)C)C(=O)N[C@@H](C)c1nc2c(F)cccc2[nH]1 [CEN-5, Isobutyl ((S)-4-((S)-2-Ethylpiperidin-1-yl)-1-(((S)-1-(4-fluoro-1H-benzo[d]imidazol-2-yl)ethyl)amino)-1,4-dioxobutan-2-yl)carbamate] | 2.5 |
| CC[C@H]1CCCCN1C(=O)C[C@H](NC(=O)c1cc(C)on1)C(=O)N[C@@H](C)c1nc2c(F)cccc2[nH]1 [CEN-6, N—((S)-4-((S)-2-Ethylpiperidin-1-yl)-1-(((S)-1-(4-fluoro-1H-benzo[d]imidazol-2-yl)ethyl)amino)-1,4-dioxobutan-2-yl)-5-methylisoxazole-3-carboxamide] | 7.1 |
| CC[C@H]1CCCCN1C(=O)C[C@H](NC(=O)CC(F)(F)F)C(=O)N[C@@H](C)c1nc2c(F)cccc2[nH]1 [CEN-7, (S)-4-((S)-2-Ethylpiperidin-1-yl)-N—((S)-1-(4-fluoro-1H-benzo[d]imidazol-2-yl)ethyl)-4-oxo-2-(3,3,3-trifluoropropanamido)butanamide] | 4.2 |
| CC[C@H]1CCCCN1C(=O)C[C@H](Nc1nc(C(C)C)no1)C(=O)N[C@@H](C)c1nc2c(F)cccc2[nH]1 [CEN-8, (S)-4-((S)-2-Ethylpiperidin-1-yl)-N—((S)-1-(4-fluoro-1H-benzo[d]imidazol-2-yl)ethyl)-2-((3-isopropyl-1,2,4-oxadiazol-5-yl)amino)-4-oxobutanamide] | 3.6 |
| CC[C@H]1CCCCN1C(=O)C[C@H](NC(=O)C1CC(C)(C)C1)C(=O)N[C@@H](C)c1nc2c(F)cccc2[nH]1 [CEN-9, N—((S)-4-((S)-2-Ethylpiperidin-1-yl)-1-(((S)-1-(4-fluoro-1H-benzo[d]imidazol-2-yl)ethyl)amino)-1,4-dioxobutan-2-yl)-3,3-dimethylcyclobutane-1-carboxamide] | 4.4 |
| CC[C@H]1CCCCN1C(=O)C[C@H](NC(=O)C1CC1C(C)C)C(=O)N[C@@H](C)c1nc2c(F)cccc2[nH]1 (stereo partly drawn) [CEN-10, N—((S)-4-((S)-2-Ethylpiperidin-1-yl)-1-(((S)-1-(4-fluoro-1H-benzo[d]imidazol-2-yl)ethyl)amino)-1,4-dioxobutan-2-yl)-2-isopropylcyclopropane-1-carboxamide] | 37.7 |
| CC[C@H]1CCCCN1C(=O)C[C@H](NC(=O)c1cncs1)C(=O)N[C@@H](C)c1nc2c(F)cccc2[nH]1 [CEN-11, N—((S)-4-((S)-2-Ethylpiperidin-1-yl)-1-(((S)-1-(4-fluoro-1H-benzo[d]imidazol-2-yl)ethyl)amino)-1,4-dioxobutan-2-yl)thiazole-5-carboxamide] | 19.2 |
| CC[C@H]1CCCCN1C(=O)C[C@H](NC(=O)N1CCCCC1)C(=O)N[C@@H](C)c1nc2c(F)cccc2[nH]1 [CEN-12, N—((S)-4-((S)-2-Ethylpiperidin-1-yl)-1-(((S)-1-(4-fluoro-1H-benzo[d]imidazol-2-yl)ethyl)amino)-1,4-dioxobutan-2-yl)piperidine-1-carboxamide] | 3 |
| CC[C@H]1CCCCN1C(=O)C[C@H](NC(=O)CCC(C)(C)C)C(=O)N[C@@H](C)c1nc2c(F)cccc2[nH]1 [CEN-13, N—((S)-4-((S)-2-Ethylpiperidin-1-yl)-1-(((S)-1-(4-fluoro-1H-benzo[d]imidazol-2-yl)ethyl)amino)-1,4-dioxobutan-2-yl)-4,4-dimethylpentanamide] | 11.2 |
| CC[C@H]1CCCCN1C(=O)C[C@H](NC(=O)N1CCOCC1)C(=O)N[C@@H](C)c1nc2c(F)cccc2[nH]1 [CEN-14, N—((S)-4-((S)-2-Ethylpiperidin-1-yl)-1-(((S)-1-(4-fluoro-1H-benzo[d]imidazol-2-yl)ethyl)amino)-1,4-dioxobutan-2-yl)morpholine-4-carboxamide] | 4.5 |
| CC[C@H]1CCCCN1C(=O)C[C@H](NC(=O)N(C)CC(C)C)C(=O)N[C@@H](C)c1nc2c(F)cccc2[nH]1 [CEN-15, (S)-4-((S)-2-Ethylpiperidin-1-yl)-N—((S)-1-(4-fluoro-1H-benzo[d]imidazol-2-yl)ethyl)-2-(3-isobutyl-3-methylureido)-4-oxobutanamide] | 5 |
| CC[C@H]1CCCCN1C(=O)C[C@H](Nc1nc2ccccc2o1)C(=O)N[C@@H](C)c1nc2c(F)cccc2[nH]1 [CEN-16, (S)-2-(Benzo[d]oxazol-2-ylamino)-4-((S)-2-ethylpiperidin-1-yl)-N—((S)-1-(4-fluoro-1H-benzo[d]imidazol-2-yl)ethyl)-4-oxobutanamide] | 4.5 |
| CC[C@H]1CCCCN1C(=O)C[C@H](NC(=O)C1CC2(CCC2)C1)C(=O)N[C@@H](C)c1nc2c(F)cccc2[nH]1 [CEN-17, N—((S)-4-((S)-2-Ethylpiperidin-1-yl)-1-(((S)-1-(4-fluoro-1H-benzo[d]imidazol-2-yl)ethyl)amino)-1,4-dioxobutan-2-yl)spiro[3.3]heptane-2-carboxamide] | 13.4 |
| CC[C@H]1CCCCN1C(=O)C[C@H](NC(=O)c1cnc(C)s1)C(=O)N[C@@H](C)c1nc2c(F)cccc2[nH]1 [CEN-18, N—((S)-4-((S)-2-Ethylpiperidin-1-yl)-1-(((S)-1-(4-fluoro-1H-benzo[d]imidazol-2-yl)ethyl)amino)-1,4-dioxobutan-2-yl)-2-methylthiazole-5-carboxamide] | 9.5 |
| CC[C@H]1CCCCN1C(=O)C[C@H](Nc1nc2ccc(C)cc2o1)C(=O)N[C@@H](C)c1nc2c(F)cccc2[nH]1 [CEN-19, (S)-4-((S)-2-Ethylpiperidin-1-yl)-N—((S)-1-(4-fluoro-1H-benzo[d]imidazol-2-yl)ethyl)-2-((6-methylbenzo[d]oxazol-2-yl)amino)-4-oxobutanamide] | 1.1 |
| CC[C@H]1CCCCN1C(=O)C[C@H](NC(=O)CCc1ccccc1)C(=O)N[C@@H](C)c1nc2c(F)cccc2[nH]1 [CEN-20, (S)-4-((S)-2-Ethylpiperidin-1-yl)-N—((S)-1-(4-fluoro-1H-benzo[d]imidazol-2-yl)ethyl)-4-oxo-2-(3-phenylpropanamido)butanamide] | 2.6 |
| CC[C@H]1CCCCN1C(=O)C[C@H](NC(=O)NCc1ccccc1)C(=O)N[C@@H](C)c1nc2c(F)cccc2[nH]1 [CEN-21, (S)-2-(3-Benzylureido)-4-((S)-2-ethylpiperidin-1-yl)-N—((S)-1-(4-fluoro-1H-benzo[d]imidazol-2-yl)ethyl)-4-oxobutanamide] | 9.4 |
| CC[C@H]1CCCCN1C(=O)C[C@H](Nc1nc2ccccc2s1)C(=O)N[C@@H](C)c1nc2c(F)cccc2[nH]1 [CEN-22, (S)-2-(Benzo[d]thiazol-2-ylamino)-4-((S)-2-ethylpiperidin-1-yl)-N—((S)-1-(4-fluoro-1H-benzo[d]imidazol-2-yl)ethyl)-4-oxobutanamide] | 1.2 |
| CC[C@H]1CCCCN1C(=O)C[C@H](NC(=O)OCc1ccccc1)C(=O)N[C@@H](C)c1nc2c(F)cccc2[nH]1 [CEN-23, Benzyl ((S)-4-((S)-2-Ethylpiperidin-1-yl)-1-(((S)-1-(4-fluoro-1H-benzo[d]imidazol-2-yl)ethyl)amino)-1,4-dioxobutan-2-yl)carbamate] | 5.8 |
| CC[C@H]1CCCCN1C(=O)C[C@H](NS(=O)(=O)CCC(C)C)C(=O)N[C@@H](C)c1nc2c(F)cccc2[nH]1 [CEN-24, (S)-4-((S)-2-Ethylpiperidin-1-yl)-N—((S)-1-(4-fluoro-1H-benzo[d]imidazol-2-yl)ethyl)-2-((3-methylbutyl)sulfonamido)-4-oxobutanamide] | 17.8 |
| CC[C@H]1CCCCN1C(=O)C[C@H](NC(=O)[C@H]1C[C@@H]1c1ccccc1)C(=O)N[C@@H](C)c1nc2c(F)cccc2[nH]1 [CEN-25, (1S,2S)—N—((S)-4-((S)-2-Ethylpiperidin-1-yl)-1-(((S)-1-(4-fluoro-1H-benzo[d]imidazol-2-yl)ethyl)amino)-1,4-dioxobutan-2-yl)-2-phenylcyclopropane-1-carboxamide] | 8.1 |
| CC[C@H]1CCCCN1C(=O)C[C@H](NC(=O)N(C)Cc1ccccc1)C(=O)N[C@@H](C)c1nc2c(F)cccc2[nH]1 [CEN-26, (S)-2-(3-Benzyl-3-methylureido)-4-((S)-2-ethylpiperidin-1-yl)-N—((S)-1-(4-fluoro-1H-benzo[d]imidazol-2-yl)ethyl)-4-oxobutanamide] | 3.3 |
| CC[C@H]1CCCCN1C(=O)C[C@H](Nc1nc(Cc2ccc(F)cc2)no1)C(=O)N[C@@H](C)c1nc2c(F)cccc2[nH]1 [CEN-27, (S)-4-((S)-2-Ethylpiperidin-1-yl)-N—((S)-1-(4-fluoro-1H-benzo[d]imidazol-2-yl)ethyl)-2-((3-(4-fluorobenzyl)-1,2,4-oxadiazol-5-yl)amino)-4-oxobutanamide] | 1.4 |
